What was measured:
[1] = target: human catalytic domain HDAC4 protein (Homo sapiens, UniProt P56524, A743G/DEL730-739/DEL742-742); experiment: Inhibition of HDAC4 catalytic domain enzymatic activity, Boc-Lys(Tfa)-AMC substrate, fluorescence; settings: read-out: Biochemical HDAC-4 IC50
Method: Analysis of Inhibition of HDAC4 with Class IIa Histone Deacetylase (HDAC) Inhibitors
The substrate is deacetylated to Boc-Lys-AMC by HDAC4. Cleavage by trypsin results in the release of the fluorophore AMC from the deacetylated substrate. The fluorescence of the sample is directly related to the histone deacetylase activity in the sample.
(§1) Serially Dilute HDAC Inhibitor Compounds.
Stocks of 60 μl aliquots of the 10 mM compound in DMSO are prepared and stored at −20° C. From one stock aliquot of each compound to be tested and the reference compound, a 16-point serial dilution is prepared according to Table 1 using a 125 μl 16-channel Matrix multi-channel pipette (Matrix Technologies Ltd).
2 μl (200×) of each diluted solution and each control (full activity: 100% DMSO alone or full inhibition 1 mM) is stamped into V-bottomed polypropylene 384-well compound plates using either the Bravo (384-well head from Agilent) or 12.5 μl 16-channel Matrix multi-channel pipette (Matrix Technologies Ltd).
Prepare HDAC4 Catalytic Domain Enzyme (0.86 μg/ml).
Prepare 5× (50 NM) Boc-Lys(Tfa)-AMC Substrate.
5× (50 μM) substrate is prepared just prior to the addition to the assay. A 1 mM substrate stock is made by diluting a 100 mM Boc-Lys(Tfa)-AMC in DMSO solution 1:100 by adding it drop-wise to assay buffer (equilibrated to room temperature) while vortexing at slow speed to prevent precipitation. The 5× substrate is prepared by diluting the 1 mM substrate solution 1:20 by adding it drop-wise to assay buffer (equilibrated to room temperature) while vortexing at slow speed to prevent precipitation.
Prepare 3× (30 NM) Developer/Stop Solution.
5 μl of each solution of 1:20 diluted compound from above is transferred to a clear bottomed, black, 384-well assay plate using the Bravo or the Janus (384-well MDT head from Perkin Elmer). Using a 16-channel Matrix multi-channel pipette, 35 μl of the working solution of HDAC4 catalytic domain enzyme (0.86 μg/ml in assay buffer) is transferred to the assay plate. The assay is then started by adding 10 μl of 5× (50 μM) substrate to the assay plates using either the Bravo, Janus or 16-channel Matrix multi-channel pipette. The assay plate is then shaken for two minutes on an orbital shaker at 900 rpm (rotations per minute). Next the plate is incubated for 15 minutes at 37° C. The reaction is stopped by adding 25 μl of 3× (30 μM) developer/stop solution to the assay plates using either the Bravo, Janus or a 16-channel Matrix multi-channel pipette. Assay plates are then shaken for 5 minutes on an orbital shaker at 1200 rpm. Next, the assay plates are incubated at 37° C. for 1 hour in a tissue culture incubator.

[2] = tested on: cellular histone deacetylase enzymatic activity in Jurkat E6-1 cells; experiment: Inhibition of cellular HDAC activity in Jurkat E6-1 cells, Class IIa selective substrate Boc-Lys(Tfa)-AMC; assay type: cell-based; settings: Homo sapiens
Method: Analysis of Inhibition of Cellular HDAC Activity with Class IIa Histone Deacetylase (HDAC) Inhibitors
After penetration in Jurkat E6-1 cells, the substrate is deacetylated to Boc-Lys-AMC. After cell lysis and cleavage by trypsin, the fluorophore AMC is released from the deacetylated substrate only. The fluoresence of the sample is directly related to the histone deacetylase activity in the sample.
Jurkat E6.1 Cell Culture and Plating.
Jurkat E6.1 cells are cultured according to standard cell culture protocols in Jurkat E6.1 Growth Media (RPMI without phenol red, 10% FBS, 10 mM HEPES, and 1 mM Sodium Pyruvate). Jurkat E6.1 cells are counted using a Coulter Counter and resuspended in Jurkat E6.1 growth media at a concentration of 75,000 cells/35 μl. 35 μl or 75,000 cells is seeded into Greiner microtitre assay plates. The plates are then incubated at 37° C. and 5% CO2 while other assay components are being prepared.
as §1
Stocks of 70 μl aliquots of the 10 mM compound in DMSO are prepared and stored at −20° C. From one stock aliquot of each compound to be tested and the reference compound, a 16-point serial dilution is prepared according to Table 1 using a 125 μl 16-channel Matrix multi-channel pipette.
2 μl (200×) of each diluted solution and each control (full activity: 100% DMSO alone or full inhibition 1 mM) is stamped into V-bottom polypropylene 384-well compound plates using either the Bravo, Janus, or 12.5 μl 16-channel Matrix multi-channel pipette. Each well with the 200× compound solution is diluted 1:20 by the addition of 38 μl Jurkat assay buffer+DMSO (9.5% DMSO, RPMI without phenol red, 0.09% FBS, 9 mM Hepes, and 0.9 mM Sodium Pyruvate equilibrated to room temperature)
Prepare 5× (500 μM) Boc-Lys(Tfa)-AMC Substrate.
5× (500 μM) substrate is prepared just prior to the addition to the assay. The 5× substrate is prepared by diluting a 100 mM Boc-Lys(Tfa)-AMC in DMSO solution 1:200 by adding it drop-wise to Jurkat assay medium (RPMI without phenol red, 0.1% FBS, 10 mM Hepes, and 1 mM Sodium Pyruvate equilibrated to 37° C.) while vortexing at slow speed to prevent precipitation.
10 ml of 3× lysis buffer is prepared with 8.8 ml of 3× stock lysis buffer (50 mM Tris-HCl, pH 8.0, 137 mM NaCl, 2.7 mM KCl, 1 mM MgCl2, 1% Nonidet P40 Substitute equilibrated to room temperature) and 1.2 ml of 3 mg/ml Trypsin equilibrated to room temperature.
5 μl of each solution of 1:20 diluted compound from above is transferred to the Greiner microtitre assay plates with 75,000 cells/well using the Bravo. Cells are then incubated for 2 hours at 37° C. and 5% CO2. The assay is then started by adding 10 μl of 5× (500 μM) substrate to the assay plate using either the Bravo or 16-channel Matrix multi-channel pipette. The cells are then incubated for 3 hours at 37° C. and 5% CO2. Next, 25 μl of 3× lysis buffer is added to each well using either the 125 μl 16 channel pipette or the Bravo. The assay plate is then incubated overnight (15-16 hours) at 37° C. and 5% CO2. The following day, the plates are shaken on an orbital shaker for 1 minute at 900 rpm. Finally the top read fluorescence (Excitation: 355 nm, Emission: 460 nm) is measured using PerkinElmer EnVision.

Chain of human catalytic domain HDAC4 protein (P56524 with tags, fused parts or gaps A743G/DEL730-739/DEL742-742): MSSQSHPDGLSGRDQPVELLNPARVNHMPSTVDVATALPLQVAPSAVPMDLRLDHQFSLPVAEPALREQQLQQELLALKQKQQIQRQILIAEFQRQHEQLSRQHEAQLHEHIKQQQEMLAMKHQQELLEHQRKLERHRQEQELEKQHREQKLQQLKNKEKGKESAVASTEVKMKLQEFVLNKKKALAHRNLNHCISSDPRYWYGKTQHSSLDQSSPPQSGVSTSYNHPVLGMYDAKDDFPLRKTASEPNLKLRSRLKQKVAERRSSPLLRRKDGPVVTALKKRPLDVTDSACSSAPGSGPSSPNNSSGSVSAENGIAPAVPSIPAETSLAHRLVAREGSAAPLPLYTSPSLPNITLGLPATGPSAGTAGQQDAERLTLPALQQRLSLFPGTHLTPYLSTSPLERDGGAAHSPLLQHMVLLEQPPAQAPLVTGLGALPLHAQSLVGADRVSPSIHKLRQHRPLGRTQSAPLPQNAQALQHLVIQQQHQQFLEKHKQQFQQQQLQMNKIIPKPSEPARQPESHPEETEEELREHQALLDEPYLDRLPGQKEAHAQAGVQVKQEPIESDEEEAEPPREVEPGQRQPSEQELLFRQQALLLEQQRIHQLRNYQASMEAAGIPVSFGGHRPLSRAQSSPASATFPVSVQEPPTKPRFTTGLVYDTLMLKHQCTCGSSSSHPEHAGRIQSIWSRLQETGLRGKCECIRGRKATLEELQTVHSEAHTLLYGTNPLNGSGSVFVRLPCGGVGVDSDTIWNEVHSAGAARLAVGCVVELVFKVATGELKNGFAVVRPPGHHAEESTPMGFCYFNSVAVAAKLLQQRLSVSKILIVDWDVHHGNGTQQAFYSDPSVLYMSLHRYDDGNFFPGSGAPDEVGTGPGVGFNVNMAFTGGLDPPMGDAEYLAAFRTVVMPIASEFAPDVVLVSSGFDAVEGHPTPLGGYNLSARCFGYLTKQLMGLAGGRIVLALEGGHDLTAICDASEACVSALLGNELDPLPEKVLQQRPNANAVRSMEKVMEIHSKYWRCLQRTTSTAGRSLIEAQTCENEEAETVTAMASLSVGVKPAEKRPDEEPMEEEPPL

Q: How did the IC50 [1] turn out when `O=C(NO)[C@@]1(F)[C@H](c2ccccc2)[C@H]1c1ccnc(C2CC2)c1` (racemic) [(1R*,2S*,3S*)-2-(2-Cyclopropylpyridin-4-yl)-1-fluoro-N-hydroxy-3-phenylcyclopropanecarboxamide] was run?
A: > 50 µM

Q: And the IC50 [2]?
A: > 50 µM

Q: What does the source list for `O=C(NO)[C@@]1(F)[C@H](c2ccccc2)[C@H]1c1ccc(-c2cnc(C3CC3)o2)cc1` (racemic) [(1R*,2S*,3S*)-2-(4-(2-Cyclopropyloxazol-5-yl)phenyl)-1-fluoro-N-hydroxy-3-phenylcyclopropanecarboxamide]?
A: IC50 [1]: 4.65 µM; IC50 [2]: 28 µM

Q: Which results are given for `O=C(NO)[C@@]1(F)[C@H](c2ccccc2)[C@H]1c1cc(Cl)c2c(c1)OCCO2` (racemic) [(1R*,2S*,3S*)-2-(8-Chloro-2,3-dihydrobenzo[b][1,4]dioxin-6-yl)-1-fluoro-N-hydroxy-3-phenylcyclopropanecarboxamide]?
A: IC50 [1]: 6.47 µM; IC50 [2]: 40 µM

Q: What does the source list for `O=C(NO)[C@]1(F)[C@H](c2ccccc2)[C@H]1c1ccc(-c2cnc(C3CC3)o2)cc1` (racemic) [(1S*,2S*,3S*)-2-(4-(2-Cyclopropyloxazol-5-yl)phenyl)-1-fluoro-N-hydroxy-3-phenylcyclopropanecarboxamide]?
A: IC50 [1]: 0.02 µM; IC50 [2]: 0.31 µM

Q: How did the IC50 [1] turn out when `O=C(NO)[C@]1(F)[C@H](c2ccccc2)[C@H]1c1ccc(Br)cc1` (racemic) [(1S*,2S*,3S*)-2-(4-Bromophenyl)-1-fluoro-N-hydroxy-3-phenylcyclopropanecarboxamide] was run?
A: 0.06 µM

Q: What about the IC50 [2] of the same compound?
A: 0.87 µM

Q: For `Cc1cnc(-c2ccc([C@H]3[C@H](c4ccccc4)[C@]3(Cl)C(=O)NO)cc2)nc1` [(1R,2R,3R)-1-Chloro-N-hydroxy-2-(4-(5-methylpyrimidin-2-yl)phenyl)-3-phenylcyclopropanecarboxamide], which IC50 [2] is on record?
A: 15.3 µM

Q: Which IC50 [2] does the source give for `O=C(NO)[C@@]1(F)[C@@H](c2ccccc2)[C@@H]1c1ccc(-c2ncc(F)cn2)cc1` [(1R,2R,3R)-1-Fluoro-2-(4-(5-fluoropyrimidin-2-yl)phenyl)-N-hydroxy-3-phenylcyclopropanecarboxamide] here?
A: 4.5 µM

Q: How did the IC50 [2] turn out when `Cc1cnc(-c2ccc([C@H]3[C@H](c4ccccc4)[C@]3(F)C(=O)NO)cc2)nc1` [(1R,2R,3R)-1-Fluoro-N-hydroxy-2-(4-(5-methylpyrimidin-2-yl)phenyl)-3-phenylcyclopropanecarboxamide] was run?
A: 8.9 µM

Q: With `O=C(NO)[C@@]1(F)[C@@H](c2ccccc2)[C@@H]1c1ccc(-c2nccc(C(F)(F)F)n2)cc1` [(1R,2R,3R)-1-Fluoro-N-hydroxy-2-phenyl-3-(4-(4-(trifluoromethyl)pyrimidin-2-yl)phenyl)cyclopropanecarboxamide] as the compound, how does the IC50 [2] read?
A: > 50 µM

Q: With `O=C(NO)[C@@]1(F)[C@@H](c2ccccc2)[C@@H]1c1ccc(-c2ncc(OC(F)F)cn2)cc1` [(1R,2R,3R)-2-(4-(5-(Difluoromethoxy)pyrimidin-2-yl)phenyl)-1-fluoro-N-hydroxy-3-phenylcyclopropanecarboxamide] as the compound, how does the IC50 [2] read?
A: > 50 µM

Q: How did the IC50 [1] turn out when `O=C(NO)[C@]1(F)[C@H](c2ccccc2)[C@H]1c1cnc(-c2ccc(F)cc2)s1` [(1S,2R,3S)-1-Fluoro-2-(2-(4-fluorophenyl)thiazol-5-yl)-N-hydroxy-3-phenylcyclopropanecarboxamide] was run?
A: 0.06 µM

Q: And the IC50 [2]?
A: 0.69 µM

Q: How did the IC50 [2] turn out when `Cc1cnc(-c2ccc([C@@H]3[C@@H](c4ccccc4)[C@@]3(F)C(=O)NO)cc2)nc1` [(1S,2S,3S)-1-Fluoro-N-hydroxy-2-(4-(5-methylpyrimidin-2-yl)phenyl)-3-phenylcyclopropanecarboxamide] was run?
A: 0.12 µM

Q: How did the IC50 [2] turn out when `O=C(NO)[C@]1(F)[C@H](c2ccccc2)[C@H]1c1ccc(-c2nccc(C(F)(F)F)n2)cc1` [(1S,2S,3S)-1-Fluoro-N-hydroxy-2-phenyl-3-(4-(4-(trifluoromethyl)pyrimidin-2-yl)phenyl)cyclopropanecarboxamide] was run?
A: 0.26 µM

Q: How did the IC50 [2] turn out when `O=C(NO)[C@]1(F)[C@H](c2ccccc2)[C@H]1c1ccc(-c2ncc(OC(F)F)cn2)cc1` [(1S,2S,3S)-2-(4-(5-(Difluoromethoxy)pyrimidin-2-yl)phenyl)-1-fluoro-N-hydroxy-3-phenylcyclopropanecarboxamide] was run?
A: 0.22 µM

Source: patent US9505736B2, “Histone deacetylase inhibitors and compositions and methods of use thereof” (CHDI Foundation, Inc., priority 2012, dated 2016)
